Source: US20250197387A1, “BCL-XL DEGRADERS AND USES THEREOF” (Kymera Therapeutics, Inc., priority 2021, published 2025)

Assays:
Assay type in all cases: cell-based
BCL-XL [1] = target: T1, BCL-XL (Homo sapiens, UniProt Q07817); test: BCL-XL degradation assay, western blot in MOLT-4 cells, 16 h; conditions: western blot, MOLT-4 cells, 16 h; for Dmax: read-out: Bcl-xL WB in MOLT-4 degradation 16 h: Average Dmax %; for DC50: read-out: Bcl-xL WB in MOLT-4 degradation 16 h: Mean external-Abs DC50
T1 construct: endogenous in cells; host or cells: MOLT-4
In short: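 MOLT-4 cells treated with compounds at 0.02-10 μM final for 16 hr at 37° C; lysates analysed by western blot with anti-BCL-xL, beta-actin and GAPDH loading controls, infrared imaging and densitometry; DC50 and Dmax % reported as letter codes.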

MOLT-4 cells = test: CTG (CellTiter-Glo) cell viability assay, MOLT-4; conditions: Homo sapiens, MOLT-4, 72 h, 3 day incubation, read-out: CTG Cell Viability Assay - MOLT-4 3 day: Average external-IC50
In short: (§1)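 MOLT-4 and Caki-2 cells were seeded at 10,000 per well and treated with a 9-point, 1:3 dilution series from 10 μM top concentration (0.2% DMSO). After 3 days at 37 °C, 5% CO2, viability was read by CellTiter-Glo luminescence and IC50 fitted by three-parameter logistic.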

Caki-2 cells = test: CTG (CellTiter-Glo) cell viability assay, Caki-2; conditions: Homo sapiens, 72 h, 3 day incubation, read-out: CTG Chempartner - Caki-2 3 day: Average external-IC50
In short: as §1

BCL-XL [2] = target: T1, BCL-XL; test: Bcl-xL ELISA degradation in MOLT-4 cells, 6 h; conditions: for DC50: read-out: Bcl-xL ELISA in MOLT-4 degradation 6 h: Mean external-Abs DC50
Experimental: The letter codes for BCL-XL DC50 include: A (<0.01 μM); B (0.01-0.1 μM); C (>[…]); D (>0.5-1.0 μM); and E (>1.0 μM). The letter codes for Dmax % include A (>75%); B (50 to 75%); C (<50%).

T1 sequence (Q07817 whole entry): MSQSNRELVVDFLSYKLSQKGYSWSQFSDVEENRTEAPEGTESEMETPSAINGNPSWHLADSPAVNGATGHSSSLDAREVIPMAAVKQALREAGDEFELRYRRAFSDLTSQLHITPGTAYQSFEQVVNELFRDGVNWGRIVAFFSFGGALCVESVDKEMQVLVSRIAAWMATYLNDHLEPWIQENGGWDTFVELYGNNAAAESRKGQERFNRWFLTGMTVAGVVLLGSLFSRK

Row | Dmax (BCL-XL [1]) [%] | DC50 (BCL-XL [1]) [nM] | IC50 (MOLT-4 cells) [nM] | Dmax (BCL-XL [2]) [%] | DC50 (BCL-XL [2]) [nM] | SMILES | IC50 (Caki-2 cells) [nM]
1 | > 75 | 10 to 100 | 100 to 1000 |  |  | Cc1cc(N(C)c2ccc(-c3cnn(CC4CCCCC4)c3C)c(C(=O)NS(=O)(=O)CCCCCC(=O)N[C@H](C(=O)N3C[C@H](O)C[C@H]3C(=O)N[C@@H](C)c3ccc(-c4scnc4C)cc3)C(C)(C)C)n2)nnc1Nc1nc2ccccc2s1 [I-120] | > 10000
2 | > 75 | < 10 | < 100 |  |  | Cc1ncsc1-c1ccc([C@H](C)NC(=O)[C@@H]2C[C@@H](O)CN2C(=O)[C@@H](NC(=O)CCCCCCCS(=O)(=O)NC(=O)c2nc(N3CCc4cccc(C(=O)Nc5nc6cccnc6s5)c4C3)ccc2-c2cnn(CC34CC5CC(CC(C5)C3)C4)c2C)C(C)(C)C)cc1 [I-141] | 1000 to 10000
3 |  |  | < 100 | > 75 | < 10 | Cc1ncsc1-c1ccc([C@H](C)NC(=O)[C@@H]2C[C@@H](O)CN2C(=O)[C@@H](NC(=O)CCCCCS(=O)(=O)NC(=O)c2nc(N3CCc4cccc(C(=O)Nc5nc6c(F)cccc6s5)c4C3)ccc2-c2cnn(CC3CCCCC3)c2C)C(C)(C)C)cc1 [I-459] | > 10000
4 |  |  | < 100 | > 75 | 10 to 100 | Cc1cnc(NC(=O)c2cccc3c2CN(c2ccc(-c4cnn(CC5CCCCC5)c4C)c(C(=O)NS(=O)(=O)CCCCCC(=O)N[C@H](C(=O)N4C[C@H](O)C[C@H]4C(=O)N[C@@H](C)c4ccc(-c5scnc5C)cc4)C(C)(C)C)n2)CC3)s1 [I-460] | > 10000
5 |  |  | < 100 | > 75 | 10 to 100 | Cc1ncsc1-c1ccc([C@H](C)NC(=O)[C@@H]2C[C@@H](O)CN2C(=O)[C@@H](NC(=O)COCCOCCS(=O)(=O)NC(=O)c2nc(N3CCc4cccc(C(=O)Nc5nc6ccccc6s5)c4C3)ccc2-c2cnn(CC3CCCCC3)c2C)C(C)(C)C)cc1 [I-463] | 1000 to 10000
6 |  |  | 100 to 1000 | > 75 | 10 to 100 | Cc1cc(N(C)c2ccc(-c3cnn(CC45CC6CC(CC(C6)C4)C5)c3C)c(C(=O)NS(=O)(=O)CCCCCC(=O)N[C@H](C(=O)N3C[C@H](O)C[C@H]3C(=O)N[C@@H](C)c3ccc(C#N)cc3)C(C)(C)C)n2)nnc1Nc1nc2ccccc2s1 [I-464] | > 10000
7 |  |  | 100 to 1000 | > 75 | 10 to 100 | Cc1ncsc1-c1ccc([C@H](C)NC(=O)[C@@H]2C[C@@H](O)CN2C(=O)[C@@H](NC(=O)CCCCCS(=O)(=O)NC(=O)c2nc(N3CCc4cccc(C(=O)Nc5nc6ccccc6s5)c4C3)ccc2-c2cnn(CC(C)(C)C)c2C)C(C)(C)C)cc1 [I-465] | > 10000
8 |  |  | 1000 to 3000 | > 75 | 100 to 500 | Cc1ncsc1-c1ccc([C@H](C)NC(=O)[C@@H]2C[C@@H](O)CN2C(=O)[C@@H](NC(=O)CCCCCS(=O)(=O)NC(=O)c2nc(N3CCc4cccc(C(=O)Nc5nc6cccnc6s5)c4C3)ccc2-c2cnn(CC(C)(C)C)c2C)C(C)(C)C)cc1 [I-466] | > 10000
9 |  |  | 1000 to 3000 | > 75 | 100 to 500 | Cc1ncsc1-c1ccc(CNC(=O)[C@@H]2C[C@@H](O)CN2C(=O)[C@@H](NC(=O)CCCCCS(=O)(=O)NC(=O)c2nc(N3CCc4cccc(C(=O)Nc5nc6cccnc6s5)c4C3)ccc2-c2cnn(CC(C)(C)C)c2C)C(C)(C)C)cc1 [I-467] | > 10000
10 |  |  | < 100 | > 75 | 10 to 100 | C#Cc1ccc(CNC(=O)[C@@H]2C[C@@H](O)CN2C(=O)[C@@H](NC(=O)CCCCCS(=O)(=O)NC(=O)c2nc(N3CCc4cccc(C(=O)Nc5nc6ccccc6s5)c4C3)ccc2-c2cnn(CC(C)(C)C)c2C)C(C)(C)C)cc1 [I-471] | > 10000
11 |  |  | 1000 to 3000 | > 75 | 500 to 1000 | C#Cc1ccc([C@H](C)NC(=O)[C@@H]2C[C@@H](O)CN2C(=O)[C@@H](NC(=O)CCCCCS(=O)(=O)NC(=O)c2nc(N(C)c3cc(C)c(Nc4nc5ccccc5s4)nn3)ccc2-c2cnn(CC(C)(C)C)c2C)C(C)(C)C)cc1 [I-473] | > 10000
12 |  |  | < 100 | > 75 | < 10 | C#Cc1ccc([C@H](CO)NC(=O)[C@@H]2C[C@@H](O)CN2C(=O)[C@@H](NC(=O)CCCCCS(=O)(=O)NC(=O)c2nc(N(C)c3cc(C)c(Nc4nc5ccccc5s4)nn3)ccc2-c2cnn(CC34CC5CC(CC(C5)C3)C4)c2C)C(C)(C)C)cc1 [I-474] | > 10000
13 |  |  | < 100 | > 75 | < 10 | C#Cc1ccc([C@H](C)NC(=O)[C@@H]2C[C@@H](O)CN2C(=O)[C@@H](NC(=O)CCCCCS(=O)(=O)NC(=O)c2nc(N(C)c3cc(C)c(Nc4nc5ccccc5s4)nn3)ccc2-c2cnn(CC34CC5CC(CC(C5)C3)C4)c2C)C(C)(C)C)c(O)c1 [I-475] | > 10000
14 |  |  | < 100 | > 75 | < 10 | C#Cc1ccc([C@H](COC)NC(=O)[C@@H]2C[C@@H](O)CN2C(=O)[C@@H](NC(=O)CCCCCS(=O)(=O)NC(=O)c2nc(N(C)c3cc(C)c(Nc4nc5ccccc5s4)nn3)ccc2-c2cnn(CC34CC5CC(CC(C5)C3)C4)c2C)C(C)(C)C)cc1 [I-476] | > 10000
15 |  |  | < 100 | > 75 | < 10 | C#Cc1ccc([C@H](C)NC(=O)[C@@H]2C[C@@H](O)CN2C(=O)[C@@H](NC(=O)CCCCCS(=O)(=O)NC(=O)c2nc(N(C)c3cc(C)c(Nc4nc5ccccc5s4)nn3)ccc2-c2cnn(CC34CC5CC(CC(C5)C3)C4)c2C)C(C)(C)C)c(OCCO)c1 [I-477] | > 10000
16 |  |  | < 100 | > 75 | < 10 | C#Cc1ccc([C@H](COC)NC(=O)[C@@H]2C[C@@H](O)CN2C(=O)[C@@H](NC(=O)CCCCCS(=O)(=O)NC(=O)c2nc(N3CCc4cccc(C(=O)Nc5nc6cccnc6s5)c4C3)ccc2-c2cnn(CC3CCCCC3)c2C)C(C)(C)C)cc1 [I-478] | > 10000
17 |  |  | < 100 | > 75 | < 10 | C#Cc1ccc([C@H](C)NC(=O)[C@@H]2C[C@@H](O)CN2C(=O)[C@@H](NC(=O)CCCCCS(=O)(=O)NC(=O)c2nc(N3CCc4cccc(C(=O)Nc5nc6cccnc6s5)c4C3)ccc2-c2cnn(CC3CCCCC3)c2C)C(C)(C)C)c(O)c1 [I-479] | > 10000
18 |  |  | < 100 | > 75 | < 10 | C#Cc1ccc([C@H](C)NC(=O)[C@@H]2C[C@@H](O)CN2C(=O)[C@@H](NC(=O)CCCCCS(=O)(=O)NC(=O)c2nc(N3CCc4cccc(C(=O)Nc5nc6cccnc6s5)c4C3)ccc2-c2cnn(CC3CCCCC3)c2C)C(C)(C)C)c(OCCO)c1 [I-480] | > 10000
19 |  |  | < 100 | > 75 | < 10 | C#Cc1ccc(C2(NC(=O)[C@@H]3C[C@@H](O)CN3C(=O)[C@@H](NC(=O)CCCCCS(=O)(=O)NC(=O)c3nc(N(C)c4cc(C)c(Nc5nc6ccccc6s5)nn4)ccc3-c3cnn(CC45CC6CC(CC(C6)C4)C5)c3C)C(C)(C)C)CC2)cc1 [I-481] | > 10000
20 |  |  | < 100 | > 75 | < 10 | C#Cc1ccc(C2(NC(=O)[C@@H]3C[C@@H](O)CN3C(=O)[C@@H](NC(=O)CCCCCS(=O)(=O)NC(=O)c3nc(N4CCc5cccc(C(=O)Nc6nc7cccnc7s6)c5C4)ccc3-c3cnn(CC4CCCCC4)c3C)C(C)(C)C)CC2)cc1 [I-482] | > 10000
21 |  |  | < 100 | > 75 | 10 to 100 | COc1nn(C)c2ccc(CNC(=O)[C@@H]3C[C@@H](O)CN3C(=O)[C@@H](NC(=O)CCCCCS(=O)(=O)NC(=O)c3nc(N4CCc5cccc(C(=O)Nc6nc7cccnc7s6)c5C4)ccc3-c3cnn(CC4CCCCC4)c3C)C(C)(C)C)cc12 [I-483] | > 10000
22 |  |  | < 100 | > 75 | < 10 | Cc1cc(N(C)c2ccc(-c3cnn(CC45CC6CC(CC(C6)C4)C5)c3C)c(C(=O)NS(=O)(=O)CCCCCC(=O)N[C@H](C(=O)N3C[C@H](O)C[C@H]3C(=O)NCc3ccc4c(c3)c(C)nn4C)C(C)(C)C)n2)nnc1Nc1nc2ccccc2s1 [I-484] | > 10000
23 |  |  | < 100 | > 75 | 10 to 100 | C#Cc1ccc([C@H](CO)NC(=O)[C@@H]2C[C@@H](O)CN2C(=O)[C@@H](NC(=O)CCCCCS(=O)(=O)NC(=O)c2nc(N3CCc4cccc(C(=O)Nc5nc6cccnc6s5)c4C3)ccc2-c2cnn(CC3CCCCC3)c2C)C(C)(C)C)cc1 [I-488] | > 10000
24 |  |  | < 100 | > 75 | 10 to 100 | COc1nn(C)c2ccc([C@H](C)NC(=O)[C@@H]3C[C@@H](O)CN3C(=O)[C@@H](NC(=O)CCCCCS(=O)(=O)NC(=O)c3nc(N4CCc5cccc(C(=O)Nc6nc7cccnc7s6)c5C4)ccc3-c3cnn(CC4CCCCC4)c3C)C(C)(C)C)cc12 [I-489] | > 10000
25 |  |  | 100 to 1000 | > 75 | 100 to 500 | COc1nn(C)c2ccc([C@@H](C)NC(=O)[C@@H]3C[C@@H](O)CN3C(=O)[C@@H](NC(=O)CCCCCS(=O)(=O)NC(=O)c3nc(N4CCc5cccc(C(=O)Nc6nc7cccnc7s6)c5C4)ccc3-c3cnn(CC4CCCCC4)c3C)C(C)(C)C)cc12 [I-490] | > 10000
